From ChEMBL document CHEMBL1142239, “Optimization of novel acyl pyrrolidine inhibitors of hepatitis C virus RNA-dependent RNA polymerase leading to a development candidate” (J Med Chem, 2007)
pEC50, pIC50: −log10 of the molar value. Active and inactive are the calls of the source. The calls are words filed in the database; no cut-off is given here.

Experiments:
[1] = Cytotoxicity against Vero cells after 4 days; format: cell-based; settings: chlorocebus sabaeus, read-out: CCID50
[2] = test system: Hepatitis C virus; experiment: Inhibition of HCV 1b RB01 NS5B by filtermat assay; set-up: species or system Hepatitis C virus subtype 1b
[3] = test system: Hepatitis C virus; experiment: Antiviral activity against HCV replicon containing HCV 1b genome transfected in Huh7 cells after 72 hrs by ELISA; format: functional, organism-based, Hepacivirus hominis; settings: genotype 1b, Huh-7, 72 h
[4] = Bioavailability in Sprague-Dawley rat at 2 mg/kg, po and 1 mg/kg, iv; format: ADME, organism-based; settings: in vivo
[5] = Plasma clearance in Sprague-Dawley rat at 1 mg/kg, iv; format: ADME, organism-based; set-up: dose 1 mg/kg, route intravenous
[6] = test system: Hepatitis C virus; experiment: Inhibition of HCV 1b RB01 NS5B by SPA; set-up: species or system Hepatitis C virus subtype 1b
[7] = Lipophilicity, log D of the compound; format: physicochemical; settings: octanol/water
[8] = test system: Hepatitis C virus; experiment: Antiviral activity against HCV replicon containing HCV 1b genome transfected in Huh7 cells in presence of interferon alpha 2a; format: functional, organism-based; settings: Hepacivirus hominis; genotype 1b; Huh-7

Compound	CC50 at 96 h [1] [µM]	pIC50 [2]	pEC50 [3]	bioavailability [4] [%]	clearance [5] [mL/min/kg]	pIC50 [6]	logD [7]	Activity [8]
CC(C)C[C@@]1(C(=O)O)C[C@H](C(=O)O)[C@H](c2nccs2)N1C(=O)c1ccc(C(C)(C)C)cc1 (racemic)	> 500	5.42	< 4.70					
COc1cc(C(=O)N2[C@@H](c3nccs3)[C@@H](C(N)=O)C[C@@]2(CC(C)C)C(=O)O)ccc1C(C)(C)C	> 500	8.30	6.21	0.6	37			
CCOC[C@@H]1C[C@@](CC(C)C)(C(=O)O)N(C(=O)c2ccc(C(C)(C)C)c(OC)c2)[C@H]1c1nccs1 (racemic)	214		4.89			5.49		
CCOC[C@H]1C[C@@](CC(C)C)(C(=O)O)N(C(=O)c2ccc(C(C)(C)C)c(OC)c2)[C@H]1c1nccs1	142		6.33	120	5	6.37	2.7	
CC(C)C[C@@]1(C(=O)O)C[C@H](C(N)=O)[C@H](c2nccs2)N1C(=O)c1ccc(C(C)(C)C)c(Br)c1	> 500	7.85	6.24	2	24			
CC(C)C[C@@]1(C(=O)O)C[C@H](C(=O)O)[C@H](c2cccs2)N1C(=O)c1ccc(C(C)(C)C)cc1 (racemic)	> 500	5.96	< 4.70					
CC(C)C[C@@]1(C(=O)O)C[C@H](C(=O)O)[C@H](c2cccs2)N1C(=O)c1ccc(C(F)(F)F)cc1 (racemic)	> 500	4.70	< 4.70					
CC(C)C[C@@]1(C(=O)O)C[C@H](C(N)=O)[C@H](c2nccs2)N1C(=O)c1ccc(C(C)(C)C)c(Cl)c1	> 500	7.70	5.92	5	29			
COc1cc(C(=O)N2[C@@H](c3nccs3)[C@H](CO)C[C@@]2(CC(C)C)C(=O)O)ccc1C(C)(C)C (racemic)	482		5.89	11	39	6.00		
CC(C)C[C@@]1(C(=O)O)C[C@H](C(N)=O)[C@H](c2nccs2)N1C(=O)c1ccc(C(C)(C)C)cc1	430	6.01	< 4.70	2	21			
COC[C@H]1C[C@@](CC(C)C)(C(=O)O)N(C(=O)c2ccc(C(C)(C)C)c(OC)c2)[C@H]1c1nccs1	240		6.41	59	5	6.36	2.2	Active
COc1cc(C(=O)N2[C@@H](c3nccs3)[C@@H](CO)C[C@@]2(CC(C)C)C(=O)O)ccc1C(C)(C)C (racemic)	358		6.68	12	36	6.14		
COC[C@@H]1C[C@@](CC(C)C)(C(=O)O)N(C(=O)c2ccc(C(C)(C)C)c(OC)c2)[C@H]1c1nccs1	265		5.24	44	12	5.64		
